Assay results from US9440977B2, “Compositions, uses and methods for their preparation” (priority 2013, dated 2016).

Experiments:
Assay in all cases: JAK activity, Invitrogen SelectScreen Biochemical Kinase Profiling, Z'-LYTE
Conditions in all cases: ATP concentration at Km
JAK2 = JAK2 (Homo sapiens, UniProt O60674)
Experimental: (§1) JAK activity was determined using Invitrogen's SelectScreen® Biochemical Kinase Profiling Service using the Z'-LYTE Screening Protocol and Assay Conditions (ATP concentration at Km).

JAK1 = JAK1 (Homo sapiens, UniProt P23458)
Experimental: as §1

JAK3 = target: T1, JAK3 (Homo sapiens, UniProt P52333)
T1 sequence (P52333 1-1124): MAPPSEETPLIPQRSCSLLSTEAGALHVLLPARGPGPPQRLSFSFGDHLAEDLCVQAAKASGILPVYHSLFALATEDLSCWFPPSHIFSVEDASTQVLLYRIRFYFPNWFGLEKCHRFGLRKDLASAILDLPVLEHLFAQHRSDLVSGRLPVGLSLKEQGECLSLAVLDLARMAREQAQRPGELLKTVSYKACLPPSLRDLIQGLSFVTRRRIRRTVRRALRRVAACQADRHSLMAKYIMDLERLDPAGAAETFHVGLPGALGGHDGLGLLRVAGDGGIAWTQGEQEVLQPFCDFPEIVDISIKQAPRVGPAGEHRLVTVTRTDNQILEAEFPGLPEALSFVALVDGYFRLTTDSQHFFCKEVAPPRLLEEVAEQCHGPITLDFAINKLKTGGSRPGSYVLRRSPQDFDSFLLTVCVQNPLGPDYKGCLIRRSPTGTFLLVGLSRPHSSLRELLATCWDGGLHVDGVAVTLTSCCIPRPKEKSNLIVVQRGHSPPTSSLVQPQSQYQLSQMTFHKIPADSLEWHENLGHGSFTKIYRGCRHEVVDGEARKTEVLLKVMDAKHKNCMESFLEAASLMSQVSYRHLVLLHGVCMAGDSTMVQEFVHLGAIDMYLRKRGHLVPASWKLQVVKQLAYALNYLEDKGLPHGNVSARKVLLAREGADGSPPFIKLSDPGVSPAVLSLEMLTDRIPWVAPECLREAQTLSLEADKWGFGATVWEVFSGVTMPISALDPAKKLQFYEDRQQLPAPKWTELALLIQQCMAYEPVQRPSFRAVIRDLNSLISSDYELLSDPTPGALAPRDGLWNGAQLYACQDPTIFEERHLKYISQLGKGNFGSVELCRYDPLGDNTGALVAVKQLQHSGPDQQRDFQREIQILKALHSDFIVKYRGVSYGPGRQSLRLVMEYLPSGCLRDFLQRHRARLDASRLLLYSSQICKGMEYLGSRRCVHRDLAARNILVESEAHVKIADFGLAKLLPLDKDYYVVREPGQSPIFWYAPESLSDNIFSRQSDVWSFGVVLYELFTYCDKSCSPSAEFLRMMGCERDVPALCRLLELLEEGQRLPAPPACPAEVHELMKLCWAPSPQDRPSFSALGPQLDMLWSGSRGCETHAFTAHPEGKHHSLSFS
Experimental: as §1

JAK2, sequence (O60674 whole entry): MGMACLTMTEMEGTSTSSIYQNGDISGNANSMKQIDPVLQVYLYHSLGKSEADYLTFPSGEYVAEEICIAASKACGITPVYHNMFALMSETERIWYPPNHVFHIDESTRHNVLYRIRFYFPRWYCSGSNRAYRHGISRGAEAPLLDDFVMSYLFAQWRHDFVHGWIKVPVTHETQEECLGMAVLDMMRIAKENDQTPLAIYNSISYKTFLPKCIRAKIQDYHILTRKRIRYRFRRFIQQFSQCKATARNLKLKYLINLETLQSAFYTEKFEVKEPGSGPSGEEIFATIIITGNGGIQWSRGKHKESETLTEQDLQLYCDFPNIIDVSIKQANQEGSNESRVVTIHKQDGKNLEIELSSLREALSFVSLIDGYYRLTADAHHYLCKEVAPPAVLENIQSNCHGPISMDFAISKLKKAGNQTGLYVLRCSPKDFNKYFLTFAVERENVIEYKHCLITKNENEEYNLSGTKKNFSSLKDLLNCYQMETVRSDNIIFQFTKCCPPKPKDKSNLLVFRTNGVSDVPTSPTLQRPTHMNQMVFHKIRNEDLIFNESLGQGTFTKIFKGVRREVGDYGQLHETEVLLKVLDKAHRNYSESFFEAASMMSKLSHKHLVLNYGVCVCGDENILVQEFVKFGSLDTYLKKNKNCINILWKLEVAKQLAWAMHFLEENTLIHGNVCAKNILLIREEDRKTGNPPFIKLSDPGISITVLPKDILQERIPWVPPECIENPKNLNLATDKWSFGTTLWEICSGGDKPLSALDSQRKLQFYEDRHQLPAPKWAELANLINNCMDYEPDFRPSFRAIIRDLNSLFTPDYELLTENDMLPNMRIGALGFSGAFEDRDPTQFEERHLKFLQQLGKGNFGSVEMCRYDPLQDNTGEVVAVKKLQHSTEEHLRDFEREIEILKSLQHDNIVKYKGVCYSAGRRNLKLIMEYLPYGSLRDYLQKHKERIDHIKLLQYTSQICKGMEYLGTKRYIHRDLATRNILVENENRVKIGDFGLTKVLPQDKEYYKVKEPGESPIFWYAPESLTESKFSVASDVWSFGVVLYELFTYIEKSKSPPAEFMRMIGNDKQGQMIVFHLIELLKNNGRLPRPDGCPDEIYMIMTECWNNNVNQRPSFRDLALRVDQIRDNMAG
JAK1, sequence (P23458 whole entry): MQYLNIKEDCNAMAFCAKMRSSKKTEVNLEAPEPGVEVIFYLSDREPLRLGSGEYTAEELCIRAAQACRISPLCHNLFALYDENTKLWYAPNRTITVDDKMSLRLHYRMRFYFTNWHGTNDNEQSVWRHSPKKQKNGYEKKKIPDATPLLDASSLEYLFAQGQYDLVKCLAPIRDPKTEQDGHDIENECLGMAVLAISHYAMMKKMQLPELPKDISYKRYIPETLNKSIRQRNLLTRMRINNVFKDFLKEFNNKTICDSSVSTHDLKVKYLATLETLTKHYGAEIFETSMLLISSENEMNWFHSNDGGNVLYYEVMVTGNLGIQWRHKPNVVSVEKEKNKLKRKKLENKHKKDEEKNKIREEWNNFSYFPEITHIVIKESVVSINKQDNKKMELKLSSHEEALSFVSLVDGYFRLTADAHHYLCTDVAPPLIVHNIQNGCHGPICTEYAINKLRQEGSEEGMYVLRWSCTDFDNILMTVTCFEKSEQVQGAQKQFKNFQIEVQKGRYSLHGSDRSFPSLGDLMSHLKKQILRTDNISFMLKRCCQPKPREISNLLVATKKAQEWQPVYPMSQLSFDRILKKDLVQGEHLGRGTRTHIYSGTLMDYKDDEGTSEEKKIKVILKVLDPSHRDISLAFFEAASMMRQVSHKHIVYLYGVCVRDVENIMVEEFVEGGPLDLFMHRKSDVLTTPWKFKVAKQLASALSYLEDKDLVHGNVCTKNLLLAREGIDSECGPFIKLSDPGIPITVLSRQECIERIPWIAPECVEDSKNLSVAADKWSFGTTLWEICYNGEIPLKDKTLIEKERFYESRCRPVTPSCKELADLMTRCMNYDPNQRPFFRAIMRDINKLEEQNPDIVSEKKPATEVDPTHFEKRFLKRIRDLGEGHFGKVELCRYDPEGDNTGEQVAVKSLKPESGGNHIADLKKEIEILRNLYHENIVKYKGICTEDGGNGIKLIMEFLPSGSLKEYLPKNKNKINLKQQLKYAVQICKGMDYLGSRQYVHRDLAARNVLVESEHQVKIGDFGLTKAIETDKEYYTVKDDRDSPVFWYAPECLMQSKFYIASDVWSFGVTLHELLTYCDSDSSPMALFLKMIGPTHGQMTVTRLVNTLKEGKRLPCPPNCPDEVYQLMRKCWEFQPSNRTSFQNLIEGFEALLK

| SMILES | IC50 (JAK2) [nM] | IC50 (JAK1) [nM] | IC50 (JAK3) [nM] |
| --- | --- | --- | --- |
| N#CCC(C1CCCC1)n1cc2c(n1)C(=O)c1c[nH]c3nccc-2c13 (stereo not drawn) [Example 1, 3-cyclopentyl-3-{7-oxo-4,5,10,12-tetraazatetracyclo[6.6.1.0^2,6.0^11,15]pentadeca-1(15),2,5,8,11,13-hexaen-4-yl}propanenitrile] | < 10 | 10 to 100 | > 100 |
| N#CCC(C1CCCC1)n1ncc2c1C(=O)c1c[nH]c3nccc-2c13 (stereo not drawn) [Example 2, 3-cyclopentyl-3-{7-oxo-4,5,10,12-tetraazatetracyclo[6.6.1.0^2,6.0^11,15]pentadeca-1(15),2(6),3,8,11,13-hexaen-5-yl}propanenitrile] | 10 to 100 | > 100 | > 100 |
| N#CC[C@H](C1CCCC1)n1cc2c(n1)C(=O)c1c[nH]c3nccc-2c13 [Example 4, (3R)-3-cyclopentyl-3-{7-oxo-4,5,10,12-tetraazatetracyclo[6.6.1.0^2,6.0^11,15]pentadeca-1(15),2,5,8,11,13-hexaen-4-yl}propanenitrile] | < 10 | 10 to 100 | > 100 |
